Experimental data as given in ChEMBL document CHEMBL1201862, “PubChem BioAssay data set” (2004).
The source made the active and inactive calls.

Assays:
[1] = molecular target: Paired box protein Pax-8 (Homo sapiens, UniProt Q06710); test: inhibitors of PAX8-driven TPO luciferase reporter, dose response, RMG-I cells, cherry-pick (AID 687027); type: functional, cell-based;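 also: luciferase reporter driven by Pax8 target thyroperoxidase promoter measured by SteadyGlo luminescence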
[2] = molecular target: T1, Rac GTPase-activating protein 1 (Homo sapiens, UniProt Q9H0H5); test: MgcRacGAP GTPase-activating activity inhibitors, confirmation, biochemical, ADP Hunter fluorescence, primary and confirmatory (AID 624330); type: functional
T1 sequence (Q9H0H5 whole entry): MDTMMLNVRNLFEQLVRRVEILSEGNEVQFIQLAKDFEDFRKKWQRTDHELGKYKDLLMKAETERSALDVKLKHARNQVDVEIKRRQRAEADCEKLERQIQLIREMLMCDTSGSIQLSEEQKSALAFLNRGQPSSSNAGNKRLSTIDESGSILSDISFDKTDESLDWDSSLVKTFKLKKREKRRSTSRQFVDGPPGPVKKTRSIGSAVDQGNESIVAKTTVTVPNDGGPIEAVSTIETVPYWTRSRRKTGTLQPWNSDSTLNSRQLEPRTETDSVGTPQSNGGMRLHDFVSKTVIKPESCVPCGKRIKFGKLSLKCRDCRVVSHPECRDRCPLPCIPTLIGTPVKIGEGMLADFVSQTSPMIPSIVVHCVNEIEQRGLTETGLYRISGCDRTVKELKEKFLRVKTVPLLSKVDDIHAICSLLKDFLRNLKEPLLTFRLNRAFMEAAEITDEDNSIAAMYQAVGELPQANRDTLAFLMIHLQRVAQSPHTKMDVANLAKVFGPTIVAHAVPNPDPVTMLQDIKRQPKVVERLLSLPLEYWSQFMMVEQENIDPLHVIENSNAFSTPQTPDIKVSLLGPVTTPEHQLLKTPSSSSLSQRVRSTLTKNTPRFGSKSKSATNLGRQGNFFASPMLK

[3] = molecular target: T2, Corticotropin-releasing factor receptor 2/Corticotropin-releasing factor-binding protein (Homo sapiens, UniProt P24387+Q13324); test: Dose Response confirmation of uHTS hits for small molecule antagonists of the CRF-binding protein and CRF-R2 receptor complex.; type: functional; settings: read-out: IC50_Mean
T2 sequence (Q13324 whole entry): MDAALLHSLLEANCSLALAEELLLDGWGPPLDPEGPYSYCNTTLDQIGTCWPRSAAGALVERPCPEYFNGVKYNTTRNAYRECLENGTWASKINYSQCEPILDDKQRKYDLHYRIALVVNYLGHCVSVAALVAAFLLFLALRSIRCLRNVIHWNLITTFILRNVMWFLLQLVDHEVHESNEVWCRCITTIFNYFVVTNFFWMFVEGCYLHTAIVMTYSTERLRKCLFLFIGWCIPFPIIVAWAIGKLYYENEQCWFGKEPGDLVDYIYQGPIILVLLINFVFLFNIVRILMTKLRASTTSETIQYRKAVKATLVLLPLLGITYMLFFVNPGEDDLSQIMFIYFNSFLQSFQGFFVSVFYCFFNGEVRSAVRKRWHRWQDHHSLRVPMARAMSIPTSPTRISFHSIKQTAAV
T2 sequence (P24387 whole entry): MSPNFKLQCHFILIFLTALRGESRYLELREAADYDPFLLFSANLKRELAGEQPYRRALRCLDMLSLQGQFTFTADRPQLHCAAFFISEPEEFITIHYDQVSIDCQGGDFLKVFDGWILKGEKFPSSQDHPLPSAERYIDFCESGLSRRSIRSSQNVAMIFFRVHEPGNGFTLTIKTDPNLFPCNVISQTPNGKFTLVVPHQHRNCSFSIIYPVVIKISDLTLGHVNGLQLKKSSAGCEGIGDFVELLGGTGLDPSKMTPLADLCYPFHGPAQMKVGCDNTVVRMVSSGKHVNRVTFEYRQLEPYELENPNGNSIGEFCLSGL

[4] = molecular target: Cytochrome P450 2C9 (Homo sapiens, UniProt P11712)
Sequence of Cytochrome P450 2C9 (P11712 whole entry): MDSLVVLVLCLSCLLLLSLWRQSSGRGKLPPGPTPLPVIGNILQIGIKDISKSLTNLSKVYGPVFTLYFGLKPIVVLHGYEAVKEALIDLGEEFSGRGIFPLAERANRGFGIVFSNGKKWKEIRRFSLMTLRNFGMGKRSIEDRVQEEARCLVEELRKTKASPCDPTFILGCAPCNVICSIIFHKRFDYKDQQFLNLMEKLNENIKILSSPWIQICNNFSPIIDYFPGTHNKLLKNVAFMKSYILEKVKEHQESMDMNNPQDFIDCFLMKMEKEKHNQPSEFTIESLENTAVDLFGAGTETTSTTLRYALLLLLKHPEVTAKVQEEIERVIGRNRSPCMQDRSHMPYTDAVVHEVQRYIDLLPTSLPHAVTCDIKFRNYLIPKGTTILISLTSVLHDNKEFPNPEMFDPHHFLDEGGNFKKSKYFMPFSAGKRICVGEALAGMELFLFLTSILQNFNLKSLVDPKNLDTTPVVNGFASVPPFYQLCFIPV

[5] = molecular target: Cytochrome P450 2C19 (Homo sapiens, UniProt P33261); test: Cytochrome panel assay with activity outcomes. Panel member name: p450-cyp2c19 Compounds with AC50 equal or less than 10 uM are considered active; type: functional; settings: read-out: AC50
Sequence of Cytochrome P450 2C19 (P33261 whole entry): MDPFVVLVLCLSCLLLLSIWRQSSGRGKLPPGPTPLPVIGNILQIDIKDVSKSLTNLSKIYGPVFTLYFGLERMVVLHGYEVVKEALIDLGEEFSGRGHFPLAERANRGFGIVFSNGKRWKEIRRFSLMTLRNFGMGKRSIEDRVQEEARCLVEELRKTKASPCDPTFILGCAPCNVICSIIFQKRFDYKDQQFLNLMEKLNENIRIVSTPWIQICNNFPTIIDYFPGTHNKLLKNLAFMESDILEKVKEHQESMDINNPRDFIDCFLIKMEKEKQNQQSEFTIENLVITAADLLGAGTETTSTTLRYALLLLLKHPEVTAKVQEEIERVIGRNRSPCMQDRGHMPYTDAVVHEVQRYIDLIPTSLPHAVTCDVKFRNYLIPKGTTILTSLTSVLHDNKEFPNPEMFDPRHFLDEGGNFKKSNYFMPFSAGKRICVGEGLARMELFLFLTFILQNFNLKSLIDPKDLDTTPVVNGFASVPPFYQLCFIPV

[6] = molecular target: T2, Corticotropin-releasing factor receptor 2/Corticotropin-releasing factor-binding protein; test: activators of CRF receptor 2 with binding protein – uHTS hits, confirmation (AID 602473); type: functional; settings: read-out: EC50_Mean
[7] = molecular target: T3, Cytochrome P450 1A2 (Homo sapiens, UniProt P05177);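 also: PubChem cytochrome P450 panel assay, CYP1A2 panel member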
T3 sequence (P05177 whole entry): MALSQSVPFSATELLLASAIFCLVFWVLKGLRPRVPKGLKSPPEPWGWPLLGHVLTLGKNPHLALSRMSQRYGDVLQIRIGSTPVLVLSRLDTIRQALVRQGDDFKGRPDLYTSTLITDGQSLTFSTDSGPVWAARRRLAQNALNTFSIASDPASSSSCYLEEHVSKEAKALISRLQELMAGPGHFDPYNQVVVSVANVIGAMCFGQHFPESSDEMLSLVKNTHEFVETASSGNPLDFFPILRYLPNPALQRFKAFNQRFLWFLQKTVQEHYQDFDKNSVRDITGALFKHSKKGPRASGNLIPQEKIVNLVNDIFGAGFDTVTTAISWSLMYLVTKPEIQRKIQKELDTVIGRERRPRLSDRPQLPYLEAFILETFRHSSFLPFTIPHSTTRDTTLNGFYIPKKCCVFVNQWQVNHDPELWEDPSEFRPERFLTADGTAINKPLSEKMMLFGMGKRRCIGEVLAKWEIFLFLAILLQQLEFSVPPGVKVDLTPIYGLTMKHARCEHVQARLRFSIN

[8] = molecular target: T4, Streptokinase A (Streptococcus pyogenes serotype M1, UniProt P10520); test: S. pyogenes streptokinase expression inhibitors, potency, dose response, plasminogen activation absorbance, OD405 (AID 1914); type: functional, Streptococcus pyogenes M1 GAS;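 also: secreted streptokinase activity via plasminogen activation per viability signal from cell pellet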
T4 sequence (P10520 whole entry): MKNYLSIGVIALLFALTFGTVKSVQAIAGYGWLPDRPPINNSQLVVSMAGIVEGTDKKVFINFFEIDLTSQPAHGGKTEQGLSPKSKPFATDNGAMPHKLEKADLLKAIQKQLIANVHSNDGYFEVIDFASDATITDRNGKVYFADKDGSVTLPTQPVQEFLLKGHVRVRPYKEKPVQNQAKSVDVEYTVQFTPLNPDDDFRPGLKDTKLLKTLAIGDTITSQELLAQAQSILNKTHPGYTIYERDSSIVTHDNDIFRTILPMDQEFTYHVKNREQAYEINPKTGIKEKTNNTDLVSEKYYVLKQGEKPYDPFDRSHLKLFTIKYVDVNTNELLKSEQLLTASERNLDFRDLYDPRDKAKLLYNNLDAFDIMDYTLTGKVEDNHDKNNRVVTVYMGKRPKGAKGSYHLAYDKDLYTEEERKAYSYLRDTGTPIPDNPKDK

[9] = tested on: Streptococcus; test: Group A Streptococcus viability loss, dose response, counter-screen for streptokinase expression inhibitor project, luminescence, BacTiterGlo (AID 1915); type: functional, organism-based;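 also: potency for reduction of bacterial viability or growth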
[10] = tested on: Streptococcus sp. 'group A'; test: growth inhibition of control SK(-) GAS strain, dose response, counter-screen for streptokinase expression inhibitor project, luminescence, kanamycin, BacTiterGlo, confirmation (AID 1900); type: functional, organism-based
[11] = molecular target: T5, Heat shock factor protein 1 (Mus musculus, UniProt P38532); test: inhibition of MG132-induced HSE-luciferase signal, confirmation, cell-based, NIH3T3, luminescence, dose retest (AID 2382); type: functional;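 also: NIH3T3 fibroblasts with HSF1-driven luciferase reporter stressed by proteasome inhibitor MG132; luminescence from HSF1-driven luciferase expression after 8 hours of MG132 stress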
T5 sequence (P38532 whole entry): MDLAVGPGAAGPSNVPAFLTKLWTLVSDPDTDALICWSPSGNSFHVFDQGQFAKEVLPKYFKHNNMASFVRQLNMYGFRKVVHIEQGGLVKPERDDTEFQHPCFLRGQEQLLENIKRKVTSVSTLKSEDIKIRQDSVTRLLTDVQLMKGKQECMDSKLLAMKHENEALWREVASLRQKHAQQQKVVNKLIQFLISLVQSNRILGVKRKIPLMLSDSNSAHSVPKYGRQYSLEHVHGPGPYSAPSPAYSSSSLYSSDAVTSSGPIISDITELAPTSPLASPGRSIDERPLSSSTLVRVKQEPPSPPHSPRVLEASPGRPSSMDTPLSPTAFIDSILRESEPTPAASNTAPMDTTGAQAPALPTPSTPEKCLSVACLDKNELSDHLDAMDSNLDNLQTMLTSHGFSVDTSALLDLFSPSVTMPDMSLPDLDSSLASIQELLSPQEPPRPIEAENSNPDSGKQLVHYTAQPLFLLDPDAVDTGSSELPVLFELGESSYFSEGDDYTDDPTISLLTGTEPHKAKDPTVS

Sequence of Paired box protein Pax-8 (Q06710 whole entry): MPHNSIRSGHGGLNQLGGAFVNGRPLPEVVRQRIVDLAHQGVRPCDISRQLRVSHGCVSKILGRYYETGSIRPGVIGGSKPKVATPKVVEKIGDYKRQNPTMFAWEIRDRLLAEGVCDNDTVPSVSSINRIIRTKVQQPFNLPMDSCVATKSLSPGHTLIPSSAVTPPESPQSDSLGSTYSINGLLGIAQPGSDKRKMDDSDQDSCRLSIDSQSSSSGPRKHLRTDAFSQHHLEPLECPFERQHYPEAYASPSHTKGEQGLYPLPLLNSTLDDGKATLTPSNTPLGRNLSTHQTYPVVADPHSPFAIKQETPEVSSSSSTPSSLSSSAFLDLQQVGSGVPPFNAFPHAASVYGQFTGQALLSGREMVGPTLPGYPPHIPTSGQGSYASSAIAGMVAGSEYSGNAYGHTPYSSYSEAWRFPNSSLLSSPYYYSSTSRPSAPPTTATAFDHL

| Compound | IC50 [3] | EC50 [6] | EC50 [8] | EC50 [9] | further results |
| --- | --- | --- | --- | --- | --- |
| C[C@@H]1CCCCO[C@H](CN(C)Cc2ccc(Cl)c(Cl)c2)[C@@H](C)CN([C@@H](C)CO)C(=O)c2cc(NS(=O)(=O)c3ccc(Cl)cc3)ccc2O1 | – | – | – | – | AC50 [1]: 10.2 µM (active) |
| Oc1ccc(N2CCN(Cc3cc4c(cc3Br)OCCO4)CC2)cc1 | – | – | – | – | IC50 [2]: 66.7 µM (active) |
| Cc1sc2ncnc(OCC(=O)NC(C)C)c2c1C | > 47.1 µM (inactive) | > 53 µM (inactive) | – | – | AC50 [4]: 22.4 µM (inconclusive); AC50 [5]: 20 µM (inconclusive); AC50 [7]: 31.6 µM (inconclusive) |
| Cc1cccc(C(=O)NC(=S)N2CCN(C(=S)NC(=O)c3cccc(C)c3)CC2)c1 | > 47.1 µM (inactive) | > 53 µM (inactive) | – | – | – |
| C[C@@H]1CN([C@H](C)CO)C(=O)c2cc(NC(=O)Nc3ccc(F)cc3)ccc2O[C@@H](C)CCCCO[C@H]1CN(C)S(=O)(=O)c1ccc(F)cc1 | – | – | – | – | AC50 [1]: 8.62 µM (active) |
| Cc1cc2nc(N=C(N)NC(=O)C(C)C)nc(C)c2cc1C | – | – | > 150 µM (not active) | – | – |
| COc1cc(NC(=O)CSc2ncnc3sc4c(c23)CCCC4)c(C(=O)O)cc1OC | – | – | > 150 µM (not active) | > 150 µM (not active) | EC50 [10]: 20.8 µM (active) |
| COc1cccc(C2CC(c3cccs3)=NN2C(=S)Nc2ccccc2)c1OC (centres undefined) | > 47.1 µM (inactive) | > 53 µM (inactive) | – | – | – |
| O=C(NCc1ccccn1)C1CCN(S(=O)(=O)c2c[nH]cn2)CC1 | > 47.1 µM (inactive) | > 53 µM (inactive) | – | – | – |
| Cc1noc(C)c1-c1nnc(-c2ccc(OC(F)(F)F)cc2)o1 | – | – | > 150 µM (not active) | > 150 µM (not active) | EC50 [10]: > 150 µM (not active) |
| CC(Oc1cccc(Cl)c1)C(=O)NNC(=O)c1cccnc1 (centres undefined) | > 47.1 µM (inactive) | > 53 µM (inactive) | – | – | – |
| Cc1ccc(CN2CCN(C3CCOCC3)CC2CCO)cc1 (centres undefined) | > 47.1 µM (inactive) | > 53 µM (inactive) | – | – | – |
| Oc1ccc(/C=N/Nc2nc(N3CCCCCC3)nc(N3CCCCCC3)n2)c(O)c1 | > 47.1 µM (inactive) | > 53 µM (inactive) | – | 1.86 µM (active) | EC50 [10]: 1.13 µM (active) |
| CCOC(=O)c1sc(NC(=O)c2cccc(S(=O)(=O)N3CCN(C)CC3)c2)cc1C | > 47.1 µM (inactive) | > 53 µM (inactive) | – | – | – |
| Cc1ccc(S(=O)(=O)Nc2ccc3c(c2)C(=O)N([C@H](C)CO)C[C@@H](C)[C@H](CN(C)Cc2ccc(C(F)(F)F)cc2)OCCCC[C@@H](C)O3)cc1 | – | – | – | – | AC50 [1]: 8.45 µM (active) |
| O=C(c1ccccc1F)N1CCN(Cc2ccc3c(c2)OCO3)CC1 | – | – | – | – | IC50 [2]: 125 µM (active) |
| O=C1N=C(N/N=C/c2cccs2)SC1Cc1ccc(Cl)c(Cl)c1 (centres undefined) | – | – | > 150 µM (not active) | > 150 µM (not active) | EC50 [11]: 21 µM (active) |
| OC(C/N=c1\sc2ccccc2n1CC(O)COc1ccccc1)COc1ccccc1 (centres undefined) | – | – | 10.3 µM (active) | > 150 µM (not active) | EC50 [10]: 8.85 µM (active) |
| CCOC(=O)c1c(O)cc(C)cc1Nc1ccccc1 | – | – | 139 µM (active) | > 150 µM (not active) | EC50 [10]: > 150 µM (not active) |
| O=C(Nc1ccc([N+](=O)[O-])cn1)c1cc(-c2cccc(Br)c2)nc2ccccc12 | – | – | – | – | AC50 [1]: 45.6 µM (active) |
| Clc1ccc(-c2nnc(CSc3nnc(-c4cccs4)o3)o2)cc1 | > 47.1 µM (inactive) | > 53 µM (inactive) | – | – | – |
| Cc1cc(/C=C2/C(=N)N3C(=NC2=O)SN=C3S(C)(=O)=O)c(C)n1-c1ccc(F)cc1 | – | – | > 150 µM (not active) | > 150 µM (not active) | EC50 [10]: 9.96 µM (active) |
| COc1ccc(NC2CCCN(C(=O)c3csc(C)n3)C2)cc1 (centres undefined) | – | – | – | – | IC50 [2]: 107 µM (active) |
